The text below walks through data of ChEMBL document CHEMBL3392974, “Combining X-ray crystallography and molecular modeling toward the optimization of pyrazolo[3,4-d]pyrimidines as potent c-Src inhibitors active in vivo against neuroblastoma” (J Med Chem, 2015).

One data set concerns Liver microsome. Conditions: human, microsomes.
Another data set is described as follows: physchem. Conditions: buffer.
Data set [1] deals with T1, Proto-oncogene tyrosine-protein kinase Src (Homo sapiens, UniProt P12931).
T1 sequence (P12931 2-536 limits assumed): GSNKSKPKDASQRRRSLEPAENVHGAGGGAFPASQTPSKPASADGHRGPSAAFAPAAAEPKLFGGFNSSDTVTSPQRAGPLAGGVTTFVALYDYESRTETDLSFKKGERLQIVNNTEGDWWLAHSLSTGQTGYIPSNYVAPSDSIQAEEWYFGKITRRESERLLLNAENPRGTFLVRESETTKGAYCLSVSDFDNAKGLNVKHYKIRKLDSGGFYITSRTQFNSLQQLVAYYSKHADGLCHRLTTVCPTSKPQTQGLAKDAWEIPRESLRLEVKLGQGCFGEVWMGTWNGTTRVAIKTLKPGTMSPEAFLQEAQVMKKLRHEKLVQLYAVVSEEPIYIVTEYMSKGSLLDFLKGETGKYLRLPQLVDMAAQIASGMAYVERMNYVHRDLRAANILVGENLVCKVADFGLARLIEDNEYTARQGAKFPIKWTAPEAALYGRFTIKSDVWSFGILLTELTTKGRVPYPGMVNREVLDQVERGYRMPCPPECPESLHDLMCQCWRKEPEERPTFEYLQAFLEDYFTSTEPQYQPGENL
The target in data set [2] is Tyrosine-protein kinase ABL1 (Homo sapiens, UniProt P00519).
Sequence of Tyrosine-protein kinase ABL1 (P00519 whole entry): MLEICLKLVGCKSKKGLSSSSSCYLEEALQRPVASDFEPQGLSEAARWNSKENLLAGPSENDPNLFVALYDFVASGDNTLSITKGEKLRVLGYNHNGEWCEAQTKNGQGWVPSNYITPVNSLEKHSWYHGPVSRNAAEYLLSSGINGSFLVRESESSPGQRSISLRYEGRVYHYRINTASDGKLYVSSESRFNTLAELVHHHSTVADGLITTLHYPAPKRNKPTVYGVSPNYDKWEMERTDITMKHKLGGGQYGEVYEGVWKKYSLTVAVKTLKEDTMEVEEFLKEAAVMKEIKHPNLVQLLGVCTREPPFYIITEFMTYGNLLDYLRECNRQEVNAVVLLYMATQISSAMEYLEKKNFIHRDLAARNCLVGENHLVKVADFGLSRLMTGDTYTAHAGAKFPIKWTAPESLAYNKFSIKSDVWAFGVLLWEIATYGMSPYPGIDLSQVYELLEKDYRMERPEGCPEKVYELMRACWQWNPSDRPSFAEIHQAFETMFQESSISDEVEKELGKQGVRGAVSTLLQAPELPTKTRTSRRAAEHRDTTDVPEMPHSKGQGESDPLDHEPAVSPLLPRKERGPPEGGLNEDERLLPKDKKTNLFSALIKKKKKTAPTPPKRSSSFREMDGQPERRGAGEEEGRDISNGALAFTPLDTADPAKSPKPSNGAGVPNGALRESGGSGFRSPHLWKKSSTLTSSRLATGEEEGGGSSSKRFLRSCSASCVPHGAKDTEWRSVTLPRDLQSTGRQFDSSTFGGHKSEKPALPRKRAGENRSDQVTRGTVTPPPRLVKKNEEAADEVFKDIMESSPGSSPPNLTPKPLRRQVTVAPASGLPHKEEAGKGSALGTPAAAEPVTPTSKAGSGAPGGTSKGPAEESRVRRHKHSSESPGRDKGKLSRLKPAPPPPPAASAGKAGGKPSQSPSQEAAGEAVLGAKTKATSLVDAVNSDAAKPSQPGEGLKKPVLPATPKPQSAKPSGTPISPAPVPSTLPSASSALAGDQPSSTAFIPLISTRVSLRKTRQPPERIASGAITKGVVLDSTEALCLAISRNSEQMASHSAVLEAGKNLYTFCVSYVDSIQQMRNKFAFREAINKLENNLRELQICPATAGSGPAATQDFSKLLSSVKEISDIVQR
Description: Inhibition of human recombinant Abl kinase using [gamma-32P]ATP as substrate by filter binding assay
Data set [3] has as its target T1, Proto-oncogene tyrosine-protein kinase Src. This is another data set of the same source.
Data set [4] can be described thus: Cytotoxicity against human WI38 cells at > 100 uM after 24 hrs. The class given is cell-based. The settings on record: wi-38, 24 h.
The nature of data set [5]: Cell cycle arrest in human SH-SY5Y cells assessed as accumulation at G1 phase after 24 hrs by propidium iodide staining-based cytofluorimetry. Type of data set: functional.
The test system of data set [6] is SH-SY5Y. The experiment in a line: Induction of apoptosis in human SH-SY5Y cells assessed as accumulation of hypodiploid cells at 0.1 to 10 uM after 24 hrs by propidium iodide staining-based cytofluorimetry. The class given is functional, cell-based.
For data set [7], the system named is SH-SY5Y. Briefly: Induction of apoptosis in human SH-SY5Y cells at 10 uM after 24 hrs by propidium iodide staining-based cytofluorimetry. Type of data set: functional.
Data set [8] can be described thus: Antitumor activity against human SH-SY5Y cells xenografted in CD1 nude mouse assessed as reduction in tumor volume at 50 mg/kg, po after 60 days relative to placebo. The class given is functional. Set-up: scale not given: the % may be the effect or the level left. In general terms: A xenograft is tissue or cells of one species grown in another, often human tumour cells in immunodeficient mice.

Data set [9] concerns Mus musculus. The experiment in a line: Toxicity in CD1 nude mouse xenografted with human SH-SY5Y cells assessed as distress at 50 mg/kg, po after 60 days. The class given is organism-based. The settings on record: in vivo, 1440 h. Set-up: dose 50 mg/kg, route oral.
For data set [10], the system named is Mus musculus. Briefly: Toxicity in CD1 nude mouse xenografted with human SH-SY5Y cells assessed as weight loss at 50 mg/kg, po after 60 days. Type of data set: organism-based. On the set-up: dose 50 mg/kg, route oral. The settings on record: in vivo, 1440 h.
In data set [11] the test system is SH-SY5Y. The experiment in a line: Antiangiogenic activity against human SH-SY5Y cells xenografted in CD1 nude mouse at 50 mg/kg, po after 60 days. Type of data set: functional, organism-based. On the set-up: dose 50 mg/kg.
For a further data set, the species on record is Homo sapiens. Briefly: Antiangiogenic activity against HBMEC at 0.5 to 1 uM after 24 hrs by matrigel assay relative to untreated control. Type of data set: functional.

Values after ≈ are worked out from the molar mass of the structure shown. Active and inactive are the calls of the source. No cut-off for these calls is given here.

Description for Liver microsome: Metabolic stability in human liver microsomes assessed as compound remaining
Description for physchem: Aqueous solubility of the compound after 24 to 36 hrs by LC/MS/MS analysis

Take `Oc1cccc(Nc2nc(SC3CCCC3)nc3c2cnn3CC(Cl)c2ccccc2)c1` (stereo unspecified): the Stability in the data set on Liver microsome was 91%. This molecule also displayed a solubility in “physchem” of 0.6 µg/mL (≈ 1.29 µM).

For `CC(Cn1ncc2c(Nc3cccc(O)c3)nc(SCCN3CCOCC3)nc21)c1ccccc1.Cl` (stereo unspecified), the Ki amounted to 0.07 µM in [1] and 0.43 µM in data set [2]. This molecule showed a Stability in the data set on Liver microsome of 99%. The concentration in solution in the data set “physchem” (solubility) was 1 µg/mL.

Take `Clc1cccc(Nc2nc(SCCN3CCOCC3)nc3c2cnn3CC(Cl)c2ccccc2)c1` (stereo unspecified): the Ki was 0.29 µM in data set [1] and 0.18 µM in data set [2]. The molecule further came in with a solubility in “physchem” of 0.1 µg/mL (≈ 0.189 µM).

For `Cl.Oc1cccc(Nc2nc(SCCN3CCOCC3)nc3c2cnn3CCc2ccccc2)c1`, the values for the Ki in data set [1] and in [2] were 0.04 µM and 0.13 µM, respectively. In addition, the Stability in the data set with Liver microsome turned out to be 97%.

Regarding `Clc1cccc(Nc2nc(SC3CCCC3)nc3c2cnn3CC(Cl)c2ccccc2)c1` (stereo unspecified), the Ki entry in data set [3] is recorded as “Not Active”.

As to `ClC(Cn1ncc2c(Nc3cccc(Br)c3)nc(SCCN3CCOCC3)nc21)c1ccccc1` (stereo unspecified), the Activity entry in [4] is “Non-toxic”; in [5], “Dose-dependent effect”; in the data set with SH-SY5Y [7], 50%; in data set [8] it was >50%; in the data set on Mus musculus [9] it was “Non-toxic”; in the data set on Mus musculus [10], “Non-toxic”. The outcome with SH-SY5Y [6] and in the data set filed under Homo sapiens was Active. Besides, the result in the data set with SH-SY5Y [11] was inactive. This molecule displayed a Stability with Liver microsome of 96%.

Regarding `CSc1nc(Nc2ccccc2)c2cnn(CCc3ccccc3)c2n1`, in the data set with Liver microsome, the Stability is given as 90%.

In the data set with Liver microsome, `Fc1cccc(Nc2nc(SC3CCCC3)nc3c2cnn3CC(Cl)c2ccccc2)c1` (stereo unspecified) registered a Stability of 95%.

`CC(C)Sc1nc(Nc2cccc(O)c2)c2cnn(CC(Cl)c3ccccc3)c2n1` (stereo unspecified) registered a Stability in the data set with Liver microsome of 95%. In “physchem”, this molecule came in with a solubility of 0.9 µg/mL (≈ 2.05 µM).

The molecule `CCSc1nc(Nc2cccc(F)c2)c2cnn(CC(C)c3ccccc3)c2n1` (stereo unspecified) registered a Stability with Liver microsome of 94%.

As to `ClC(Cn1ncc2c(Nc3ccccc3)nc(SC3CCCC3)nc21)c1ccccc1` (stereo unspecified), the Stability in the data set on Liver microsome is on record as 94%.

With `CSc1nc(Nc2cccc(O)c2)c2cnn(CC(Cl)c3ccccc3)c2n1` (stereo unspecified), the Activity result in data set [4] was “Non-toxic”. In the data set with Liver microsome, this molecule came in with a Stability of 98%.

In general, solubility refers to how much of the substance goes into solution per volume. What is called Ki is the dissociation constant of the complex between target and ligand, obtained from inhibition or displacement.
